These results are taken from patent US20240374567A1, “Combination Treatments for Cancer Patients and Methods for Identifying Same” (Scandion Oncology A/S, priority 2021, published 2024).

The experiment has as its system UGT1A1. Briefly: Clinical study of SCO-101 with FOLFIRI: serum bilirubin and bilirubin index after SCO-101. Type of experiment: in vivo, human. The procedure: The term “bilirubin index” as used herein or “bilirubin index score” which are used interchangeably, refer to a patient's rate of bilirubin normalization subsequent to administration of an UGT1A1 inhibitor to the patient. Herein, the bilirubin index is determined subsequent to administration of an UGT1A1 inhibitor to the patient for a number of consecutive days, such as 1, 2, 3, 4, 5, or 6, preferably 6 days. Based on 6 consecutive days of administration with an UGT1A1 inhibitor, the bilirubin index is determined as the bilirubin serum or plasma concentration (unconjugated or total bilirubin) on day 12 divided with the bilirubin serum or plasma concentration on day 7 and thus is an indicator of how much the patients' UGT1A1 activity has normalized following cessation of SCO-101 treatment and can be determined using bilirubin as a surrogate marker.
Bilirubin: Blood sampling for analysis of bilirubin (total, unconjugated and conjugated) were withdrawn at Screening (up to 4 weeks prior start of treatment), day 5, day 7 and day 12 in the first treatment cycle.
Likely, the increase in unconjugated bilirubin is mediated through inhibition of the enzyme UDP-glucuronosyltransferase 1 family, polypeptide A1 (UGT1A1). UGT1A1 is an enzyme responsible for conjugation of poorly soluble endo- and xenobiotics making them more soluble and possible to excrete. UGT1A1 is the primary enzyme responsible for conjugation of bilirubin and metabolism of Irinotecan's active metabolite SN-38. The bilirubin index score is the bilirubin serum concentration (unconjugated or total bilirubin) on day 12 divided with the bilirubin serum concentration on day 7 and thus is an indicator of how much the patients' UGT1A1 activity has normalized following cessation of SCO-101 treatment, and can be determined using bilirubin as a surrogate marker. In FIG. 2, an overview of the bilirubin index for all patients is included. The mean bilirubin index score for the six RAS wild type patients is approximately 0.15 (lowest 0.04, highest 0.28) whereas the mean score for the six RAS mutated patients is 0.59 (lowest 0.25, highest 0.76). Thus, there is a strong indication that the bilirubin index can predict a patient's tolerability to treatment.

On to `O=C(Nc1cc(C(F)(F)F)cc(C(F)(F)F)c1)Nc1ccc(Br)cc1-c1nnn[nH]1` [SCO-101], for which the “reversibility of bilirubin increase / UGT1A1 inhibition” value (after discontinuation of SCO-101 treatment) is “completely reversible”. Besides, where the note is “patients with RAS mutation, cohort 1 (150 mg SCO-101), cycle 1”, the “bilirubin index (bilirubin serum concentration on day 12 divided with day 7)” value was “above 0.4”. Under “patients, SCO-101 days 1 to 6”, the “effect on unconjugated bilirubin serum concentration” value was “specific and dose dependent increase”. Under “six RAS mutated patients”, the “highest bilirubin index score” value is on record as 0.76, the “lowest bilirubin index score” value came out at 0.25 and the “mean bilirubin index score” value was determined as 0.59. Also, where the note is “six RAS wild type patients”, the “highest bilirubin index score” value was determined as 0.28, the “lowest bilirubin index score” value is reported as 0.04 and the “mean bilirubin index score” value is on record as “approximately 0.15”.
